Assay results from patent US8546357B2, “Boron-containing small molecules for controlling ectoparasites” (priority 2011, dated 2013).

Tests used:
[1] = test system: American dog tick (Dermacentor variabilis) nymphs; test: Efficacy against nymphal-stage American dog ticks on rats, oral; assay type: in vivo; details: oral point dose of between 5-25 mg/kg bodyweight, 48 hours after treatment
Protocol: Evaluations were conducted using a modified version of the assay as described in Gutierrez et al., J. Med. Entomol. 43(3): 526-532 (2006). This assay may be modified by simply using different tick species (the reference describes Amblyomma americanum ticks), such as Dermacentor variabilis or Rhipicephalus sanguineus ticks, as well as different life-stages (larval, nymphal or adult). Further, the reference describes using topical application methods, but oral, transdermal and subcutaneous injection routes of administration may be used.
In these studies, adult male or female rats, approximately 300 grams in size, were randomly assigned to a treatment group or a control (untreated negative control or fipronil positive control) group. Each group consisted of three (3) to five (5) rats. […] On Day 2, approximately forty-eight (48) hours after treatment, live and dead ticks were removed from animals and counted.
Live tick counts were transformed using the natural logarithm transformation plus one (Ln count+1); addition of one to each count served to adjust for counts that were zero. […] GM percent efficacy of treatments was calculated using the following formula:
Enantiomers were evaluated for activity against American dog tick (Dermacentor variabilis) nymphs on rats. […] On Day 2, approximately forty-eight (48) hours after treatment, live and dead ticks were removed from animals and counted. […]

[2] = test system: cat flea (Ctenocephalides felis); test: Therapeutic efficacy and speed of kill against adult cat flea infestations on dogs, oral; assay type: in vivo; details: oral capsule 20 mg/kg
Protocol: The therapeutic efficacy and speed of kill of 7, administered orally at a point dose of 20 mg/kg bodyweight, was evaluated against adult cat flea (Ctenocephalides felis) infestations on dogs. Eighteen (18) male and female beagle dogs were allocated to one of six treatment groups (n=3 dogs per group). Groups 1, 2 and 3 were untreated, negative controls and groups 4, 5 and 6 received 7. On Day −1, all dogs were infested with approximately 100 unfed, adult fleas (approximately 50% male and 50% female). On Day 0, dogs in groups 4, 5 and 6 were orally administered gelatin capsules containing 7, at a point dose of 20 mg/kg (50% technical active, 47% microcrystalline cellulose and 3% croscarmellose sodium, w/w). At eight (8) hours post-treatment, fleas were counted and removed from dogs in groups 1 and 4; at twelve (12) hours post-treatment, fleas were counted and removed from dogs in groups 2 and 5; and at twenty-four (24) hours post-treatment, fleas were counted and removed from dogs in groups 3 and 6. GM percent efficacy of treatments against fleas was calculated using the following formula: […]

Cc1cc(C2=NOC(c3cc(Cl)c(Cl)c(Cl)c3)(C(F)(F)F)C2)ccc1C(=O)NCc1ccc2c(c1)B(O)OC2(C)C (stereo not shown) [Compound 7, N-((1-Hydroxy-3,3-dimethyl-1,3-dihydrobenzo[c][1,2]oxaborol-6-yl)methyl)-2-methyl-4-(5-(3,4,5-trichlorophenyl)-5-(trifluoromethyl)-4,5-dihydroisoxazol-3-yl)benzamide]
Maximum in vivo efficacy (% reduction in live tick counts) [1]: 7 (100%), 8 (100%),
% efficacy ([2]; 8 hours post-treatment): (90.4) %
Geometric mean group live flea counts ([2]; 8 hours post-treatment): 7.9
Geometric mean group live flea counts ([2]; 12 hours post-treatment): 0.0
% efficacy ([2]; 24 hours post-treatment): (100) %
Geometric mean group live flea counts ([2]; 24 hours post-treatment): 0.0
knockdown against an existing flea infestation ([2]; eight (8) hours of treatment): rapid knockdown
